Measurements reported in paper PMC7515829, “HKDC1 C-terminal based peptides inhibit extranodal natural killer/T-cell lymphoma by modulation of mitochondrial function and EBV suppression” (Leukemia, 2020).
Ends that are not written are not given here.

How the values were obtained:
MNCs from ENKTL patients = conditions: read-out: IC50 (µM) ENKTL, half-maximal cell death activity, peptides 0.1–15 µM, 6 h, PI staining, FACS, mean ± SEM, n in cell
Description: (§1) We investigated the potential role of HKDC1-based peptides in ENKTL cells that were isolated from the MNCs of ENKTL patients or SNK6 cell line. Three different kinds of HKDC1-based targeting peptides, including the last 15 aa at either the N-terminal (HKN15) or C-terminal (HKC15), or the last eight aa at the C-terminal (HKC8) were selected; four different kinds of cell-penetrating sequences were employed to deliver the HKDC1-based peptides, including Antp (a 16 penetrating residue long sequence from the Drosophila antennapedia-homeodomain), penetration-accelerating segment, TAT (HIV-1 TAT sequence), and Tf (the Tf receptor (TfR) internalization sequence) sequences. All of the aa with the D-configuration (marked as D) were synthesized as retro-inverso peptides. […] We then evaluated the toxic effect of two peptides (including Tf-D-HKC15 and Tf-D-HKC8) on different kinds of primary and cancer cell lines (see details in Table 2). […] We also evaluated the peptide delivery efficiency using ^125I-labeled uptake assay for both Tf-D-HKC8 and Tf-D-HKC15 peptides.
(§2) Measurement of apoptosis and cell death. Apoptosis was evaluated by TUNEL assay using the In Situ Cell Death Detection Kit™ (Roche). Cells were fixed in 4% paraformaldehyde and labeled with TUNEL reagents. Stained cells were photographed by a fluorescence microscope (11). For cell death analysis, the propidium iodide (PI) staining was performed by addition of 6.25 µg/ml of PI to the cells, and cell death was immediately evaluated by FACS analysis (3).

SNK6 cells [1] = conditions: read-out: IC50 (µM) SNK6, half-maximal cell death activity; SNK6 cells; peptides 0.1–15 µM, 6 h; PI staining, FACS; mean ± SEM, n in cell (Table 1)
Description: as §1, §2

EBV = EBV viral genomes/cell by qPCR in SNK6 cells; format: cell-based; conditions: 0.5 µM peptide, 6 h, vs CTL, n = 4 (Fig. 3i)
Description: Detection of EBV copy number. Genomic DNA was extracted from treated SNK-6 cells or SNK-6 tumor tissue in mice using a QIAamp DNA Mini Kit (Qiagen). The EBV DNA copy number was measured through qPCR using 50ng of total DNA with EBV BMRF1 primers (see Table 1), and the results were normalized using cellular β-actin (primers see Table 1) as an internal control (13, 14). The Namalwa cell line, which contains 2 EBV viral genome copies, was used as a standard to prepare calibration curves for both EBV BMRF1 and β-actin genes, and the EBV viral load was presented as the number of viral genomes per cell (15, 16).

SNK6 cells [2] = experiment: Apoptosis rate by TUNEL assay; format: cell-based, human; conditions: 0.5 µM peptide, 6 h, compared with CTL group, n = 5 (Fig. 4h)
Description: as §2

SNK6 cells [3] = experiment: 8-OHdG formation (DNA damage ELISA); format: cell-based, human; conditions: 0.5 µM peptide, 6 h, vs CTL, n = 5 (Fig. 3c)
Description: (§3) Measurement of DNA breaks. 8-OHdG formation was measured using an OxiSelect™ Oxidative DNA Damage ELISA Kit (Cat No. STA320, from Cell Biolabs Inc.) per manufacturers’ instructions. The formation of γH2AX was measured from nuclear extracts by western blotting using H2AX as the input control (8).

SNK6 cells [4] = experiment: 3-nitrotyrosine formation (ELISA); format: cell-based, human; conditions: 0.5 µM peptide, 6 h, compared with CTL group, n = 5 (Fig. 3b)
Description: Antibodies for β-actin (sc-47778), EBV Ea-D (sc-58121), EBV ZEBRA (BZ1, sc-53904), Ki-67 (sc-101861) and VDAC1 (sc-390996) were obtained from Santa Cruz Biotechnology. Antibodies for HK2 (ab104836), H2AX (ab20669), γH2AX (ab2893) and P-gp (ab129450) were obtained from Abcam. The antibody for HKDC1 (NBP1-82108) was obtained from Novus Biologicals. 3-nitrotyrosine (3-NT) was measured by 3-Nitrotyrosine ELISA Kit (ab116691 from Abcam). Nuclear extracts were prepared using the NE-PER Nuclear and Cytoplasmic Extraction Reagents Kit (Pierce Biotechnology). Protein concentration was measured using the Coomassie Protein Assay Kit (Pierce Biotechnology) per manufacturers’ instructions.

SNK6 cells [5] = conditions: 0.5 µM peptide, 6 h, vs CTL, n = 3 (Fig. 5g)
Description: Immunostaining. […] The cells were then washed three times and the FITC labeled anti-mouse secondary antibody (1:100) was added for blotting for another 1 hour. After thorough washing, the slides were visualized and photographed, the nuclei of cells were stained with 4’,6-diamidino-2-phenylindole dihydrochloride (DAPI, #D9542, from Sigma), and the positive Ki-67 cells were quantitated.

SNK6 cells [6] = experiment: Cell proliferation by thymidine incorporation; format: cell-based, human; conditions: 0.5 µM peptide, 6 h, vs CTL, n = 5 (Fig. 5a)
Description: DNA synthesis by [^3H]-thymidine incorporation. Cell proliferation was evaluated as the rate of DNA synthesis by [^3H]-methylthymidine incorporation (17). […] At the end of the treatment, cells were incubated with serum-free media containing ^3H-methylthymidine (0.5 µCi/well) for 2 hours and then washed twice with PBS. Cellular DNA was precipitated using 10% trichloroacetic acid and solubilized with 0.4M NaOH (0.5 ml/well). Incorporation of ^3H-methylthymidine into the DNA was measured in a scintillation counter and was determined as counts per minute (CPM) (8).

HKDC1/VDAC1 = HKDC1/VDAC1 (Homo sapiens, UniProt P21796); experiment: IP/WB association of HKDC1 with VDAC1 in SNK6 cells; format: cell-based; parameters: endogenous in cells; host or cells: SNK6; conditions: 0.5 µM peptide, 6 h, vs CTL, n = 5 (Fig. 4c, d)
Sequence of HKDC1/VDAC1 (P21796 2-283 limits assumed): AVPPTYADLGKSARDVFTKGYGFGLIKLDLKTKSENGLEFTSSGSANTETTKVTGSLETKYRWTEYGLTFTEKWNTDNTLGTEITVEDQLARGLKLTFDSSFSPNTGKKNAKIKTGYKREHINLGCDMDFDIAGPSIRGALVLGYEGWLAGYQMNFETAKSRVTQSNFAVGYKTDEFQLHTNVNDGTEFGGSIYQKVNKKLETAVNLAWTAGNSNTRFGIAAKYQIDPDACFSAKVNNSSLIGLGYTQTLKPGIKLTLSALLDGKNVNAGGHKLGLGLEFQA
Description: Immunoprecipitation (IP) and Western Blotting (WB). Cell lysates were pre-cleared by pre-immune IgG plus Protein A agarose beads for 2 hours, and the supernatants were immunoprecipitated by the indicated antibodies and a 50% slurry of Protein A Agarose beads overnight at 4 °C (9). After washing with buffer containing 50 mM Tris, pH 7.5, 150 mM NaCl, 1% NP-40, and 0.5% deoxycholate with protease inhibitors, proteins were released, separated on 10% SDS-PAGE gels, blotted by primary antibodies, and then simultaneously incubated with the differentially labeled species-specific secondary antibodies, anti-RABBIT IRDye™ 800CW (green) and anti-MOUSE (or goat) ALEXA680 (red). Membranes were scanned and quantitated by the ODYSSEY Infrared Imaging System (LI-COR, NE) (10).

SNK6 cells [7] = experiment: γH2AX formation (western blot); format: cell-based, human; conditions: 0.5 µM peptide, 6 h, vs CTL, n = 5 (Fig. 3d)
Description: as §3

SNK6 xenograft [8] = experiment: Mouse survival, Kaplan–Meier analysis; format: in vivo; conditions: nude mice, intratumoral 50 µM peptide every 2 days from day ~18, compared with CTL group, n = 9
Description: Statistical analysis. The data was given as mean ± SEM; all of the experiments were performed at least in quadruplicate unless otherwise indicated. One-way ANOVA followed by the Bonferroni post hoc test was used to determine statistical significance of different groups. The mouse survival curve was determined through Kaplan-Meier survival analysis using SPSS 22 software, and a P value < 0.05 was considered significant (8).

SNK6 xenograft [9] = experiment: SNK6 xenograft tumor volume; format: in vivo, mouse; conditions: nude mice, n = 5
Description: To measure malignant SNK6 xenograft growth, 100 µl of 1 × 10^5 SNK6 cells in PBS were mixed with 100 µl growth factor-reduced basement membrane matrix (Matrigel™, BD Biosciences) resulting in 200 µl of solution that was injected subcutaneously along the mouse flank at each intended tumor site. Tumor size was measured using a digital caliper and volume was calculated, and mice were randomly divided into four groups (n = 9 per group) when the tumor volume reached 50–100 mm^3 on day ~18 after tumor inoculation and given treatment as follows: Group 1 (control (CTL)) was intratumorally injected with HBSS buffer (5.33 mM KCl, 0.44 mM KH2PO4, 138 mM NaCl, 4 mM NaHCO3, 0.3 mM Na2HPO4, and 5.6 mM glucose, pH 7.3) containing 0.05% DMSO; Group 2 (Tf-D-HKN15) received HBSS buffer containing 0.05% DMSO with 50 µM Tf-D-HKN15 peptides; Group 3 (Tf-D-HKC15) received HBSS buffer containing 0.05% DMSO with 50 µM Tf-D-HKC15 peptides; Group 4 (Tf-D-HKC8) received HBSS buffer containing 0.05% DMSO with 50 µM Tf-D-HKC8 peptides. The xenografts were injected (two points, 20 µl per tumor) every 2 days. Beginning on the day of inoculation, mouse weight and tumor volume were monitored every 2 days. Mice were monitored for changes in body weight and sacrificed when values fell below 20% of their initial weight; the survival curve was calculated and the final tumor tissues were isolated for biomedical analysis.
To measure the malignant SNK6 xenograft growth, the 100µl of 1x10^5 SNK6 cells in PBS were mixed with 100µl growth factor-reduced basement membrane matrix (Matrigel™, BD Biosciences) resulting in 200µl of solution that was injected subcutaneously along the mouse flank at each intended tumor site. Tumor size was measured using a digital caliper and volume was calculated, and mice were randomly divided into 4 groups (n=9 per group) when the tumor volume reached 50-100 mm^3 on day ~18 after tumor inoculation: Group 1 (CTL) was intratumorally injected with HBSS buffer (5.33 mM KCl, 0.44 mM KH2PO4, 138 mM NaCl, 4 mM NaHCO3, 0.3 mM Na2HPO4, and 5.6 mM glucose, pH 7.3) containing 0.05% DMSO; Group 2 (Tf-D-HKN15) received HBSS buffer containing 0.05% DMSO with 50 µM Tf-D-HKN15 peptides; Group 3 (Tf-D-HKC15) received HBSS buffer containing 0.05% DMSO with 50 µM Tf-D-HKC15 peptides; Group 4 (Tf-D-HKC8) received HBSS buffer containing 0.05% DMSO with 50 µM Tf-D-HKC8 peptides. The xenografts were injected (two points, 20 µL per tumor) every two days. Beginning on the day of inoculation, mouse weight and tumor volume were monitored every 2 days. Mice were monitored for changes in body weight and sacrificed when values fell below 20% of their initial weight, the survival curve was calculated and the final tumor tissues were isolated for biomedical analysis.

SNK6 cells [10] = experiment: ROS formation (CM-H2DCFDA); format: cell-based, human; conditions: 0.5 µM peptide, 6 h, compared with CTL group, n = 5 (Fig. 3a)
Description: Measurement of ROS generation. Treated cells were seeded in a 24-well plate and incubated with 10μM CM-H2DCFDA (Invitrogen) for 45 min at 37°C, and then the intracellular formation of reactive oxygen species (ROS) was measured at excitation/emission wavelengths of 485/530nm using a FLx800 microplate fluorescence reader (Bio-Tek). The data was normalized as arbitrary units (8, 11).

Substance	IC50 (MNCs from ENKTL patients) [µM]	IC50 (SNK6 cells [1]) [µM]	also measured
GYGRKKRRQRRRG-LQQAQKEN [TAT-D-HKC8]	1.5 ± 0.7	1.7 ± 0.5	
RQIKIWFQNRRMKWKK-LQQAQKEN [Antp-D-HKC8]	1 ± 0.3	1.2 ± 0.4	
GKPILFFLQQAQKEN [PAS-HKC8]	1.4 ± 0.4	1.4 ± 0.3	
GKPILFF-LQQAQKEN [PAS-D-HKC8]	1.1 ± 0.3	1.3 ± 0.3	
HAIYPRH-MFAVHLMAFYFSKLK [Tf-D-HKN15]	> 15	> 15	EBV genome copies (EBV): no effect; apoptosis rate increase (SNK6 cells [2]): no effect; 8-OHdG formation (SNK6 cells [3]): no effect; 3-nitrotyrosine formation (SNK6 cells [4]): no effect; cell proliferation by quantitation of Ki-67 positive cells (SNK6 cells [5]): no effect; thymidine incorporation (SNK6 cells [6]): no effect; association of HKDC1 with VDAC1 (HKDC1/VDAC1): no effect; γH2AX formation (SNK6 cells [7]): no effect; mouse survival (SNK6 xenograft [8]): little effect; tumor volumes on day 36 (SNK6 xenograft [9]; intratumoral 50 µM peptide every 2 days from day ~18, day 36, vs CTL): no effect; tumor volumes on day 48 (SNK6 xenograft [9]; intratumoral 50 µM peptide every 2 days from day ~18, day 48, vs CTL): no effect; ROS formation (SNK6 cells [10]): no effect
HAIYPRHLQQAQKEN [Tf-HKC8]	0.5 ± 0.2	0.7 ± 0.2	
HAIYPRHEILNKEKK [Tf-Scram, reference compound]	> 15	> 15	
HAIYPRH-EILNKEKK [Tf-D-Scram, reference compound]	> 15	> 15	
HAIYPRHITAVAKRLQQAQKEN [Tf-HKC15]	1.2 ± 0.4	1.4 ± 0.3	
HAIYPRHMFAVHLMAFYFSKLK [Tf-HKN15]	> 15	> 15	
RQIKIWFQNRRMKWKKLQQAQKEN [Antp-HKC8]	1.3 ± 0.4	1.3 ± 0.3	
GYGRKKRRQRRRGLQQAQKEN [TAT-HKC8]	1.9 ± 0.4	2 ± 0.4	
